Data reported in patent publication US20150051252A1, “COMPOUNDS FOR USE IN THE TREATMENT OF NEUROBLASTOMA, EWING'S SARCOMA OR RHABDOMYOSARCOMA” (priority 2012, published 2015).
pEC50: −log10 of the molar value.

Legend:
Assay type in all cases: cell-based
[1] = tested on: RH-41 rhabdomyosarcoma cell line; test: Cell line sensitivity (Cell Titer Glo), RH-41; details: RH-41 cells, 72 h
Procedure: (§1) Cell culture: Cell lines are obtained from commercial sources including ATCC and DSMZ. All cell lines tested are cultured in RPMI or DMEM plus 10% FBS (Invitrogen) as supplier recommended. Cell lines are cultured in T-175 or 3 layer T-175 “triple” flasks using standard tissue culture techniques that are frequently carried out with a robot (CompacT—The Automation Partnership). All cell lines are thawed from frozen stock, grown at 37 C 5% CO2. Adherent lines are dislodged using TrypLE (Invitrogen), are expanded through at least 1 passage of 1:3 dilution and usually 2 to 3 passages before they are added to assay micro-titer plates. Cell count and viability are measured using Trypan dye exclusion with a ViCell counter (Beckman-Coulture). All cell lines are tested for and shown to be free of Mycoplasma using a PCR detection (http://www.radil.missouri.edu). […]
(§2) All assays are automated and are performed with an ultra-high throughput screening system built by the Genomics Institute of the Novartis Research Foundation (GNF Systems; http://www.gnfsystems.com/). […] Cell Titer Glo (Promega), which measures the amount of ATP in the well, is added and luminescence is read on a ViewLux plate reader (Perkin Elmer). […]

[2] = tested on: A-673 rhabdomyosarcoma cell line; test: Cell line sensitivity (Cell Titer Glo), A-673; details: A-673 cells, 72 h
Procedure: as §1, §2

[3] = tested on: KYM-1 rhabdomyosarcoma cell line; test: Cell line sensitivity (Cell Titer Glo), KYM-1; details: KYM-1 cells, 72 h, maximum observed response; 0% = vehicle, −100% = MG132 1 μM
Procedure: as §1, §2

[4] = tested on: SIMA neuroblastoma cell line; test: Cell line sensitivity (Cell Titer Glo), SIMA; details: SIMA cells, 72 h, maximum observed response; 0% = vehicle, −100% = MG132 1 μM
Procedure: as §1, §2

[5] = tested on: SK-N-BE(2) neuroblastoma cell line; test: Cell line sensitivity (Cell Titer Glo), SK-N-BE(2); details: SK-N-BE(2) cells, 72 h, maximum observed response; 0% = vehicle, −100% = MG132 1 μM
Procedure: as §1, §2

[6] = tested on: SK-N-AS neuroblastoma cell line; test: Cell line sensitivity (Cell Titer Glo), SK-N-AS; details: SK-N-AS cells, 72 h, maximum observed response; 0% = vehicle, −100% = MG132 1 μM
Procedure: as §1, §2

[7] = tested on: TC-71 Ewing's Sarcoma cell line; test: Cell line sensitivity (Cell Titer Glo), TC-71; details: TC-71 cells, 72 h
Procedure: as §1, §2

[8] = tested on: TE 617.T rhabdomyosarcoma cell line; test: Cell line sensitivity (Cell Titer Glo), TE 617.T; details: TE 617.T cells, 72 h
Procedure: as §1, §2

[9] = tested on: SK-N-SH neuroblastoma cell line; test: Cell line sensitivity (Cell Titer Glo), SK-N-SH; details: SK-N-SH cells, 72 h
Procedure: as §1, §2

[10] = tested on: SJRH30 rhabdomyosarcoma cell line; test: Cell line sensitivity (Cell Titer Glo), SJRH30; details: SJRH30 cells, 72 h
Procedure: as §1, §2

[11] = tested on: KP-N-SI9s neuroblastoma cell line; test: Cell line sensitivity (Cell Titer Glo), KP-N-SI9s; details: 72 h
Procedure: as §1, §2

[12] = tested on: MHH-ES-1 Ewing's Sarcoma cell line; test: Cell line sensitivity (Cell Titer Glo), MHH-ES-1; details: 72 h
Procedure: as §1, §2

[13] = tested on: G-402 (Leiomyoblastoma) cell line; test: Cell line sensitivity (Cell Titer Glo), G-402; details: G-402 cells, 72 h, maximum observed response; 0% = vehicle, −100% = MG132 1 μM
Procedure: as §1, §2

[14] = tested on: RD rhabdomyosarcoma cell line; test: Cell line sensitivity (Cell Titer Glo), RD; details: RD cells, 72 h
Procedure: as §1, §2

[15] = tested on: TE 125.T rhabdomyosarcoma cell line; test: Cell line sensitivity (Cell Titer Glo), TE 125.T; details: TE 125.T cells, 72 h, maximum observed response; 0% = vehicle, −100% = MG132 1 μM
Procedure: as §1, §2

[16] = tested on: SK-N-DZ neuroblastoma cell line; test: Cell line sensitivity (Cell Titer Glo), SK-N-DZ; details: SK-N-DZ cells, 72 h
Procedure: as §1, §2

[17] = tested on: Hs 729 rhabdomyosarcoma cell line; test: Cell line sensitivity (Cell Titer Glo), Hs 729; details: Hs 729 cells, 72 h, maximum observed response; 0% = vehicle, −100% = MG132 1 μM
Procedure: as §1, §2

[18] = tested on: SK-N-FI neuroblastoma cell line; test: Cell line sensitivity (Cell Titer Glo), SK-N-FI; details: SK-N-FI cells, 72 h
Procedure: as §1, §2

[19] = tested on: Hs 822.T Ewing's Sarcoma cell line; test: Cell line sensitivity (Cell Titer Glo), Hs 822.T; details: Hs 822.T cells, 72 h
Procedure: as §1, §2

[20] = tested on: KELLY neuroblastoma cell line; test: Cell line sensitivity (Cell Titer Glo), KELLY; details: KELLY cells, 72 h, maximum observed response; 0% = vehicle, −100% = MG132 1 μM
Procedure: as §1, §2

[21] = tested on: G-401 (Rhabdoid) cell line; test: Cell line sensitivity (Cell Titer Glo), G-401; details: G-401 cells, 72 h, maximum observed response; 0% = vehicle, −100% = MG132 1 μM
Procedure: as §1, §2

[22] = tested on: IMR-32 neuroblastoma cell line; test: Cell line sensitivity (Cell Titer Glo), IMR-32; details: IMR-32 cells, 72 h, maximum observed response; 0% = vehicle, −100% = MG132 1 μM
Procedure: as §1, §2

[23] = tested on: SK-ES-1 Ewing's Sarcoma cell line; test: Cell line sensitivity (Cell Titer Glo), SK-ES-1; details: SK-ES-1 cells, 72 h
Procedure: as §1, §2

[24] = tested on: CHP-212 neuroblastoma cell line; test: Cell line sensitivity (Cell Titer Glo), CHP-212; details: CHP-212 cells, 72 h
Procedure: as §1, §2

[25] = Cell Titer Glo, inflection point, 0.0025 to 8 uM, read-out: COMPOUND I EC50
[26] = maximum observed response, 0% = vehicle, −100% = MG132 1 μM

SMILES: Cc1nc(NC(=O)N2CCC[C@H]2C(N)=O)sc1-c1ccnc(C(C)(C)C(F)(F)F)c1 [COMPOUND I, (S)-Pyrrolidine-1,2-dicarboxylic acid 2-amide 1-({4-methyl-5-[2-(2,2,2-trifluoro-1,1-dimethyl-ethyl)-pyridin-4-yl]-thiazol-2-yl}-amide)]
- pEC50 [1, 25]: 5.80
- COMPOUND I Amax (% inhibition) [1, 26]: −85.4%
- pEC50 [2, 25]: 5.24
- COMPOUND I Amax (% inhibition) [2, 26]: −56.2%
- COMPOUND I Amax (% inhibition) [3]: −38.0%
- COMPOUND I Amax (% inhibition) [4]: −42.0%
- COMPOUND I Amax (% inhibition) [5]: −8.7%
- COMPOUND I Amax (% inhibition) [6]: −11.6%
- COMPOUND I Amax (% inhibition) [7, 26]: −5.4%
- pEC50 ([7]; read-out: COMPOUND I EC50, Cell Titer Glo, inflection point, 0.0025 to 8 uM, heading: COMPOUND I EC50): < 5.10
- pEC50 [8, 25]: 5.42
- COMPOUND I Amax (% inhibition) [8, 26]: −55.2%
- pEC50 [9, 25]: 5.80
- COMPOUND I Amax (% inhibition) [9, 26]: −44.6%
- pEC50 [10, 25]: 5.55
- COMPOUND I Amax (% inhibition) [10, 26]: −56.5%
- pEC50 ([11]; KP-N-SI9s cells (KRAS mutation), Cell Titer Glo, inflection point, 0.0025 to 8 uM, read-out: COMPOUND I EC50): 6.22
- COMPOUND I Amax (% inhibition) ([11]; KP-N-SI9s cells, maximum observed response, 0% = vehicle, −100% = MG132 1 μM): −54.2%
- pEC50 ([12]; MHH-ES-1 cells (amplified PIK3CA), Cell Titer Glo, inflection point, 0.0025 to 8 uM, read-out: COMPOUND I EC50): 5.57
- COMPOUND I Amax (% inhibition) ([12]; MHH-ES-1 cells, maximum observed response, 0% = vehicle, −100% = MG132 1 μM): −79.2%
- COMPOUND I Amax (% inhibition) [13]: −26.4%
- pEC50 [14, 25]: 5.48
- COMPOUND I Amax (% inhibition) [14, 26]: −43.2%
- COMPOUND I Amax (% inhibition) [15]: −49.8%
- pEC50 [16, 25]: 5.28
- COMPOUND I Amax (% inhibition) [16, 26]: −42.4%
- COMPOUND I Amax (% inhibition) [17]: −10.2%
- pEC50 [18, 25]: 5.21
- COMPOUND I Amax (% inhibition) [18, 26]: −55.6%
- pEC50 [19, 25]: 5.82
- COMPOUND I Amax (% inhibition) [19, 26]: −31.6%
- COMPOUND I Amax (% inhibition) [20]: −4.3%
- COMPOUND I Amax (% inhibition) [21]: −46.6%
- COMPOUND I Amax (% inhibition) [22]: −8.9%
- pEC50 [23, 25]: 6.30
- COMPOUND I Amax (% inhibition) [23, 26]: −51.7%
- pEC50 [24, 25]: 6.10
- COMPOUND I Amax (% inhibition) [24, 26]: −30.9%
